Measured values from patent US12344610B2, “APOL1 inhibitors and methods of use” (Maze Therapeutics, Inc., priority 2022, dated 2025).
Where two headings read alike, the source gives them in different places.

What was measured:
Format in all cases: cell-based
[1] = system: Trypanosoma brucei Lister 427 VSG221 with APOL1 G1 recombinant protein; assay: APOL1 G1 trypanosome cell rescue assay (Example B5); conditions: geometric mean of at least 2 assay runs, † = single assay run
Method: (§1) APOL1 G0/G1/G2 viability assay for measurement of cytotoxicity reversal by compound in trypanosomes (APOL1 G0/G1/G2 trypanosome cell rescue assay).
(§2) APOL1 protein expression and purification. The mature from of APOL1 proteins, residues 28-398, were expressed from a pET28a vector with an N-terminal His-tag and TEV cleavage site. Proteins were expressed in Escherichia coli BL21-CodonPlus (DE3)-RIPL cells. Liter cultures of terrific broth were grown at 37° C. until an OD600 of ˜0.8 was reached and then induced with isopropyl β-D-1-thiogalactopyranoside (IPTG; final concentration of 500 μM). Afterwards, cultures were grown for 3 hours at 37° C. For protein purification, cell pellets were resuspended in lysis buffer (50 mM Tris, pH 8.5, 5 mM EDTA, 0.5 mM DTT, 0.5 mM PMSF) supplemented with a cocktail of protease inhibitors. Cells were lysed by sonication, centrifuged, and the resulting pellet was collected. The homogenized pellet was resuspended in wash buffer (50 mM Tris, pH 8.5, 0.5 M NaCl, 5 mM EDTA, 0.5 mM DTT, 0.5 mM PMSF, protease inhibitor cocktail) and collected by centrifugation. Inclusion body dissolution was then conducted as previously reported (PNAS 112(9) (2015) 2894-2899; www.pnas.org/cgi/doi/10.1073/pnas.1421953112; herein incorporated by reference in its entirety). The solubilized APOL1 protein was applied to a nickel column (HisTrap, GE Life Sciences) preequilibrated in buffer A (50 mM Tris, pH 8.5, 0.15 M NaCl, 1% zwittergent 3-14, protease inhibitor cocktail). The resin was washed with buffer B (50 mM Tris, pH 8.5, 0.15 M NaCl, 0.1% DDM) and TEV cleavage was conducted on column overnight. Afterwards, the column was washed with buffer B, followed by His-washing buffer (50 mM Tris, pH 8.5, 0.15 M NaCl, 0.1% DDM, 10 mM imidazole). The protein was then removed from the resin using His-elution buffer (50 mM Tris, pH 8.5, 0.15 M NaCl, 0.1% DDM, 250 mM imidazole). The sample was further purified by size exclusion chromatography using a Superdex 200 Increase column (GE Life Sciences) in 50 mM Tris, pH 8.5, 0.15 M NaCl, and 0.1% DDM buffer. All APOL1 proteins (G0, G1, and G2) were generated at Viva Biotech (Shanghai) Ltd.
(§3) Modified HMI-9 media preparation (https://tryps.rockefeller.edu/trypsru2_culture_media_preparation.html; herein incorporated by reference in its entirety). Trypanosomes were cultured in modified HMI-9 media consisting of IMDM (ThermoFisher, 12440053), 10% heat-inactivated FBS (Gibco, 10082-147), 10% Serum Plus (Sigma-Aldrich, 14008C), 1×HMI-9 supplement stock, and 1% hypoxanthine stock. The 10×HMI-9 supplement stock was made by dissolving 280 mg bathocuproine disulfonic acid (Sigma-Aldrich, 146625), 1820 mg cysteine (add after bathocuproine) (Sigma-Aldrich, 30089), 1100 mg pyruvic acid (Sigma-Aldrich, 107360), 100 mg uracil (Sigma-Aldrich, U0750), 100 mg cytosine (Sigma-Aldrich, C3506) and 140 μL 2-mercaptoethanol (Sigma-Aldrich, M3148) in 1000 mL of water. The resulting solution was aliquoted and stored at −20° C. The hypoxanthine stock was made by dissolving 4 g of NaOH into 1000 mL of water. Afterwards, 13.6 g hypoxanthine (Sigma-Aldrich, H9377) was added to this mixture. The resulting solution was aliquoted and stored at −20° C.
(§4) Assay Setup. Trypanosoma brucei Lister 427 VSG221 (ATCC, PRA-382) cells were cultured in modified HMI-9 media. All experiments were performed in 384-well, white, solid bottom, tissue culture treated plates (Greiner, 781080). Assay ready plates were generated with duplicate 11-point compound dilution series that consisted of 2-fold stepwise dilutions (0.4% DMSO final). To each well, was added 20 μL of 2 μg/mL of APOL1 G0, G1, or G2 recombinant protein in modified HMI-9 media using a MultiDrop Combi (final APOL1 protein concentration=[…]). Trypanosomes were counted using a hemacytometer and diluted in modified HMI-9 media to a concentration of 1.25×10^4 cell/mL. […]

[2] = system: HEK293 clonal cell line overexpressing APOL1 G1; assay: APOL1 G1 HEK293 cell rescue assay (Example B3); conditions: geometric mean of at least 2 runs, † = single run, ¥ = concentration at 50% rescue estimated (no sigmoidal curve)
How it was run: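 Rescue of cell death caused by APOL1 G1 overexpression was measured in a clonal HEK293 line. Compounds were tested in duplicate on one plate, and EC50s were geometric means across at least two runs on different days. Some values are estimated 50%-rescue concentrations where curve fitting failed.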

[3] = system: Trypanosoma brucei Lister 427 VSG221 with APOL1 G0 recombinant protein; assay: APOL1 G0 trypanosome cell rescue assay (Example B5); conditions: geometric mean of at least 2 assay runs, † = single assay run
Method: as §1, §2, §3, §4

[4] = system: Trypanosoma brucei Lister 427 VSG221 with APOL1 G2 recombinant protein; assay: APOL1 G2 trypanosome cell rescue assay (Example B5); conditions: geometric mean of at least 2 assay runs, † = single assay run
Method: as §1, §2, §3, §4

[5] = system: HEK293 cells overexpressing APOL1 G2; assay: APOL1 G2 HEK293 cell rescue assay (reversal of cell death caused by overexpression of APOL1); conditions: geometric mean of at least 2 assay runs, † = single assay run
How it was run: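 Each compound tested in duplicate wells on one plate per run, with values usually the geometric mean across at least two runs on different days, occasionally from one run only. Read-out: concentration giving half-maximal rescue of APOL1 G2 overexpression-induced death of HEK293 cells.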

[6] = read-out: APOL1 G1 Trypanosome Rescue EC50, Trypanosoma brucei Lister 427 VSG221 with APOL1 G1 recombinant protein, 20 hours, CellTiter-Glo
[7] = HEK293 clonal line overexpressing APOL1 G1
[8] = read-out: APOL1 G0 Trypanosome Rescue EC50, Trypanosoma brucei Lister 427 VSG221 with APOL1 G0 recombinant protein, 20 hours, CellTiter-Glo
[9] = read-out: APOL1 G2 Trypanosome Rescue EC50, Trypanosoma brucei Lister 427 VSG221 with APOL1 G2 recombinant protein, 20 hours, CellTiter-Glo
[10] = Trypanosoma brucei, 20 h, read-out: APOL1 G1 Trypanosome Rescue EC50, Trypanosoma brucei Lister 427 VSG221 with APOL1 G1 recombinant protein, 20 hours, CellTiter-Glo
[11] = Homo sapiens, HEK293, HEK293 clonal line overexpressing APOL1 G1
[12] = Trypanosoma brucei, 20 h, read-out: APOL1 G0 Trypanosome Rescue EC50, Trypanosoma brucei Lister 427 VSG221 with APOL1 G0 recombinant protein, 20 hours, CellTiter-Glo
[13] = Trypanosoma brucei, 20 h, read-out: APOL1 G2 Trypanosome Rescue EC50, Trypanosoma brucei Lister 427 VSG221 with APOL1 G2 recombinant protein, 20 hours, CellTiter-Glo
[14] = Homo sapiens, HEK293, HEK293 overexpressing APOL1 G2

Compound	EC50 [1, 6]	EC50 [2, 7]	EC50 [3, 8]	EC50 [4, 9]	EC50 ([5]; HEK293 overexpressing APOL1 G2)	EC50 [1, 10]	EC50 [2, 11]	EC50 [3, 12]	EC50 [4, 13]	EC50 [5, 14]
CS(=O)(=O)C1(c2ccc(OCCN3CCC4(CC3)C(=O)Nc3ccc(C(F)F)cc34)cc2)CC(O)C1 (single isomer, unassigned) [Compound 282, 5-(difluoromethyl)-1′-(2-{4-[(trans) or (cis)-3-hydroxy-1-methanesulfonylcyclobutyl]phenoxy}ethyl)-1,2-dihydrospiro[indole-3,4′-piperidin]-2-one]	0.23 µM	0.383 µM	0.181 µM	0.0598 µM	0.13 µM					
CC1(O)CC(n2ncc3cc(OCCN4CCC5(CC4)C(=O)Nc4ccc(Cl)cc45)cnc32)C1 (centres unmarked) [Compound 407, 5-chloro-1′-(2-{[1-(3-hydroxy-3-methylcyclobutyl)-1H-pyrazolo[3,4-b]pyridin-5-yl]oxy}ethyl)-1,2-dihydrospiro[indole-3,4′-piperidin]-2-one]						0.0997 µM	0.0463 µM	0.0724 µM	0.033 µM	0.0241 µM
CC1(C)OCC(c2ncc(OCCN3CCC4(CC3)C(=O)Nc3ccc(Cl)cc34)cn2)O1 (centres unmarked) [Compound 441, 5-chloro-1′-(2-{[2-(2,2-dimethyl-1,3-dioxolan-4-yl)pyrimidin-5-yl]oxy}ethyl)-1,2-dihydrospiro[indole-3,4′-piperidin]-2-one]						0.215 µM	0.0961 µM	0.144 µM	0.0783 µM	0.0574 µM
CC1(O)CC(CN2C(=O)CCc3cc(OCCN4CCC5(CC4)C(=O)Nc4ccc(C(F)F)cc45)cnc32)C1 (single isomer, unassigned) [Compound 312, 5-(difluoromethyl)-1′-{2-[(7-oxo-8-{[(trans) or (cis)-3-hydroxy-3-methylcyclobutyl]methyl}-5,6,7,8-tetrahydro-1,8-naphthyridin-3-yl)oxy]ethyl}-1,2-dihydrospiro[indole-3,4′-piperidin]-2-one]	0.0344 µM	0.0665 µM	0.0282 µM	0.0101 µM	0.0243 µM					
O=C1CCc2cc(OCCN3CCC4(CC3)C(=O)Nc3ccc(Cl)cc34)cnc2N1[C@H]1C[C@](O)(C2CC2)C1 (single isomer, unassigned) [Compound 398, 5-chloro-1′-[2-({7-oxo-8-[(cis)-3-cyclopropyl-3-hydroxycyclobutyl]-5,6,7,8-tetrahydro-1,8-naphthyridin-3-yl}oxy)ethyl]-1,2-dihydrospiro[indole-3,4′-piperidin]-2-one]						0.0522 µM	0.374 µM	0.0536 µM	0.018 µM	0.0201 µM
C[C@]1(O)C[C@@H](n2c(=O)ccc3cc(OCCN4CCC5(CC4)C(=O)Nc4ccc(C#N)cc45)cnc32)C1 [Compound 406, 2-oxo-1′-[2-({7-oxo-8-[(cis)-3-hydroxy-3-methylcyclobutyl]-7,8-dihydro-1,8-naphthyridin-3-yl}oxy)ethyl]-1,2-dihydrospiro[indole-3,4′-piperidine]-5-carbonitrile]						0.128 µM	0.109 µM	0.107 µM	0.0511 µM	0.0583 µM
O=C(NC1CCS(=O)(=O)C1)c1ccc(OCCN2CCC3(CC2)C(=O)Nc2ccc(Cl)cc23)cc1F (centres unmarked) [Compound 241, 4-(2-{5-chloro-2-oxo-1,2-dihydrospiro[indole-3,4′-piperidin]-1′-yl}ethoxy)-N-(1,1-dioxo-1λ^6-thiolan-3-yl)-2-fluorobenzamide]						0.258 µM	0.217 µM	0.177 µM	0.0633 µM	0.0721 µM
CC1(O)CN(c2ncnc3cc(OCCN4CCC5(CC4)C(=O)Nc4ccc(Cl)cc45)cnc23)C1 [Compound 364, 5-chloro-1′-(2-{[4-(3-hydroxy-3-methylazetidin-1-yl)pyrido[3,2-d]pyrimidin-7-yl]oxy}ethyl)-1,2-dihydrospiro[indole-3,4′-piperidin]-2-one]						0.203 µM	0.239 µM	0.155 µM	0.0923 µM	0.112 µM
CC(=O)c1ncc(OCCN2CCC3(CC2)C(=O)Nc2ccc(C(F)F)cc23)cc1C(F)(F)F [Compound 295, 1′-(2-{[6-acetyl-5-(trifluoromethyl)pyridin-3-yl]oxy}ethyl)-5-(difluoromethyl)-1,2-dihydrospiro[indole-3,4′-piperidin]-2-one]						0.0402 µM	0.112 µM	0.0326 µM	0.0111 µM	0.0436 µM
C[C@]1(O)C[C@@H](n2cnc3cc(OCCN4CCC5(CC4)C(=O)Nc4ccc(Cl)cc45)cnc32)C1 [Compound 367, 5-chloro-1′-[2-({3-[(cis)-3-hydroxy-3-methylcyclobutyl]-3H-imidazo[4,5-b]pyridin-6-yl}oxy)ethyl]-1,2-dihydrospiro[indole-3,4′-piperidin]-2-one]						0.323 µM	0.145 µM	0.231 µM	0.106 µM	0.0877 µM
